Measured values from ChEMBL document CHEMBL1137738, “Synthesis of a series of 8-(substituted-phenyl)xanthines and a study on the effects of substitution pattern of phenyl substituents on affinity for adenosine A(1) and A(2A) receptors” (Eur J Med Chem, 2009).

What was measured:
Adenosine receptor A1 = biological target: T1, Adenosine receptor A1 (Homo sapiens, UniProt P30542); test: biochemical
T1 sequence (P30542 whole entry): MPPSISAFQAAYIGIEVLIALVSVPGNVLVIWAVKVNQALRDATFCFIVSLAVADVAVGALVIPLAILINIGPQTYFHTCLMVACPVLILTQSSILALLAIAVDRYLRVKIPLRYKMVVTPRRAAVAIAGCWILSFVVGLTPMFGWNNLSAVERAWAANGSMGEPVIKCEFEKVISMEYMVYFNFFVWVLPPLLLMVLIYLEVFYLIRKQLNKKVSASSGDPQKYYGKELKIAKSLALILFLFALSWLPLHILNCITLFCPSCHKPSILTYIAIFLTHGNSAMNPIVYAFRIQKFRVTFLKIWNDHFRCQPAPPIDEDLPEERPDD
Description: Displacement of [3H]DPCPX from human cloned adenosine A1 receptor expressed in CHOK1 cells by scintillation counting

Adenosine receptor A2a = Adenosine receptor A2a (Homo sapiens, UniProt P29274); test: biochemical
Chain of Adenosine receptor A2a (P29274 whole entry): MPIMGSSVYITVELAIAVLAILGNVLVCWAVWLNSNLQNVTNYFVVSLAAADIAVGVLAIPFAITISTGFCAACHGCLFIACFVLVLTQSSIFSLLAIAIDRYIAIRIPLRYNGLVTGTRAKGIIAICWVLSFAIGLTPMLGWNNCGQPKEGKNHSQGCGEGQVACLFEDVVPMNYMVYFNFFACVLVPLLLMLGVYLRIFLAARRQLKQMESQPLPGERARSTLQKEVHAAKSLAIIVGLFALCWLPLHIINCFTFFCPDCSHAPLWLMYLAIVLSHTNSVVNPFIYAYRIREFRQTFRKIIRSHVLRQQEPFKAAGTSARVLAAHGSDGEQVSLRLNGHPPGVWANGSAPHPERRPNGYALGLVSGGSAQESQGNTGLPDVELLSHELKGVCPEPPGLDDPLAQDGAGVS

Homo sapiens = species on record: Homo sapiens; test: Selectivity ratio of Ki for human cloned adenosine A1 receptor to Ki for human cloned adenosine A2A receptor
[1] = Selectivity for adenosine A1 receptor over adenosine A2 receptor

Ki (Adenosine receptor A1) | Ki (Adenosine receptor A2a) | Ratio Ki (Homo sapiens) | fold change (FC) [1] | Compound
2100 nM | 1400 nM | – | – | Cn1c(=O)c2[nH]c(-c3cccc(OCCN4CCOCC4)c3)nc2n(C)c1=O
> 100000 nM | 1100 nM | 100 | – | CCN(CC)CCOc1ccc(-c2nc3c([nH]2)c(=O)n(C)c(=O)n3C)cc1OC
13500 nM | 400 nM | 30 | – | COc1ccc(-c2nc3c([nH]2)c(=O)n(C)c(=O)n3C)cc1OCCN(C)C
> 100000 nM | 100 nM | – | – | COc1ccc(-c2nc3c([nH]2)c(=O)n(C)c(=O)n3C)cc1OCCN1CCOCC1
43000 nM | 600 nM | 70 | – | CCN(CC)CCOc1cc(-c2nc3c([nH]2)c(=O)n(C)c(=O)n3C)ccc1OC
800 nM | 400 nM | – | – | CN(C)CCOc1cccc(-c2nc3c([nH]2)c(=O)n(C)c(=O)n3C)c1
> 100000 nM | 2700 nM | 38 | – | COc1ccc(-c2nc3c([nH]2)c(=O)n(C)c(=O)n3C)cc1OCCN1CCCCC1
> 100000 nM | 100000 nM | – | – | COc1cc(-c2nc3c([nH]2)c(=O)n(C)c(=O)n3C)ccc1OCCN1CCOCC1
14000 nM | 100 nM | 140 | – | CCN(CC)CCOc1cccc(-c2nc3c([nH]2)c(=O)n(C)c(=O)n3C)c1
– | – | – | 90 | CCCn1c(=O)c2[nH]c(-c3ccc(OC)cc3O)nc2n(CCC)c1=O
> 100000 nM | 600 nM | 100 | – | COc1cc(-c2nc3c([nH]2)c(=O)n(C)c(=O)n3C)ccc1OCCN(C)C
> 100000 nM | 700 nM | 100 | – | COc1cc(-c2nc3c([nH]2)c(=O)n(C)c(=O)n3C)ccc1OCCN1CCCCC1
2100 nM | 800 nM | – | – | Cn1c(=O)c2[nH]c(-c3cccc(OCCN4CCCCC4)c3)nc2n(C)c1=O
11200 nM | 1000 nM | 10 | – | COc1cc(-c2nc3c([nH]2)c(=O)n(C)c(=O)n3C)ccc1OCCN1CCCC1
1600 nM | 400 nM | – | – | Cn1c(=O)c2[nH]c(-c3cccc(OCCN4CCCC4)c3)nc2n(C)c1=O
